Experimental data reported in patent publication US20030134865A1, “Modulation of histone deacetylase” (priority 2003, published 2003).
In brackets after ≈: the same amount, converted by molar mass. Several values for one entry are separate records, joined by “and”; a condition that tells them apart may be missing. Equal entries are not always repeated. One block for each molecule: values may come before it.

What was measured:
HDAC activity = test: Direct effect on HDAC activity of nuclear proteins from untreated A549 cells; type: biochemical; conditions: for direct effect on HDAC activity: nuclear extracts, IBMX 500 μM, rolipram 10 μM, CGS-15943 10 μM; for effect on theophylline-induced increased HDAC activity: inhibitor 1 μM
Procedure: FIG. 13. […] (a) Direct effect of the PDE4 inhibitor rolipram (10 μM) and the adenosine receptor antagonist CGS-15943 (10 μM) on HDAC activity. […] (b) Direct effect of the MEK inhibitor PD089159 (1 μM) and the p38 MAPK inhibitor SB203580 on theophylline induced HDAC activity.

HAT activity = test: Direct effect on HAT activity; type: biochemical; conditions: IBMX 500 μM, rolipram 10 μM, CGS-15943 10 μM
[1] = test system: HAT activity, BAL macrophages; test: HAT activity in BAL macrophages; conditions: rolipram 10 μM
Procedure: HAT activity (a) and HDAC activity (b) were measured as described in the methods. Results are expressed as mean±SEM (n=5).
Fibreoptic bronchoscopy and isolation of BAL macrophages: Subjects attended our bronchoscopy suite at 8.30 am after having fasted from midnight and were pretreated with atropine (0.6 mg iv) and midazolam (5-10 mg iv). Oxygen (31/min) was administered via nasal prongs throughout the procedure and oxygen saturation was monitored with a digital oximeter. Using local anaesthesia with lidocaine (4%) to the upper airways and larynx, a fibreoptic bronchoscope (Olympus BF10) was passed through the nasal passages into the trachea. Bronchoalveolar lavage (BAL) was performed from the right middle lobe using warmed 0.9% NaCl with 4 successive aliquots of 60 mls of 0.9% NaCl. […] Cytospins were prepared and stained with May-Grunwald stain for differential cell counts. Cell viability was assessed using trypan blue exclusion.
After incubation for 10 min at 37° C. cells were stimulated for 6 hr. […] Gels were stained with Coommasie brilliant blue and the core histones (H2A, H2B, H3 and H4) excised. The radioactivity in extracted core histones was determined by liquid scintillation counting and normalised to protein level.

[2] = test system: HDAC activity, BAL macrophages; test: HDAC activity in BAL macrophages; type: cell-based, human; conditions: 24 hours, rolipram 10 μM
[3] = test system: SLPI production, A549 cells; test: SLPI production by A549 cells (ELISA); type: cell-based
Procedure: A549 cells were grown to 50% confluence in Dulbecco's modified medium (DMEM) containing 10% fetal calf serum (FCS) before incubation for 48-72 hr in serura-free media.
Determination of GM-CSF expression was measured by sandwich ELISA (Pharmingen, Lugano, Switzerland) according to the manufacturer's instructions. For immunoassay of SLPI and acetylated histone, polystyrene microtitre plates were coated overnight at 4° C. with sample diluted with hydroxy carbonate (pH 9.6). Plates were blocked for 2 hr with 5 % ovalbumin in PBS. Antibodies against SLPI (R&D Systems Europe, Abingdon, UK), K5, K8, K12 and K16 acetylated histone 4 (Serotec, Oxford, UK) were diluted 1:300-1:1000 and added to each plate. After 1 hr at room temperature plates were washed sequentially with 0.1% Tween20-PBS and incubated with HRP conjugated goat anti-rabbit antibody (DAKO, Cambridge, UK) for 1 hr. Detection was performed with ABTS following Pharmingen instructions. Recombinant human SLPI (R&D Systems Europe) was used as a standard. As a standard for acetylated histone, crude extracted histone from A549 cells incubated with TSA (100 ng/ml) for 6 hr was used, and the value was calculated in units, where 1 unit is equivalent to the absorbance of 50 ng of TSA-treated hyperacetylated histone after subtraction of BSA-induced histone acetylation.

[4] = test system: p65-associated histone acetylation; test: p65-immunoprecipitated histone acetylation (IP-HAT assay); type: cell-based
Procedure: Total cellular proteins were isolated and p65 associated proteins immunoprecipitated under stringent conditions (see methods). The associated histone acetylation activity was measured following incubation of the p65-IP extract with 10 μg free core histones and 0.25 mCi of ^3H-acetyl CoA for 45 minutes.
Histone acetylation experiments were performed as in (A) in the presence of TSA (100 ng/ml).
Extracts were prepared using 100 μl of stringent immunoprecipitation (IP) buffer (50 mM Tris-HCl, pH 8.0, 150 mM NaCl, 1.0% triton X-100, 0.5% NP-40, 0.1% SDS, 0.5% deoxycholate, complete protease inhibitor cocktail (Boehringer-Mannheim)) or mild IP buffer (10 mM Tris-HCl, pH 8.0, 150 mM NaCl, 0.5% NP-40, complete protease inhibitor cocktail (Boehringer-Mannheim)). […] After microcentrifugation, 20 μl of A/G agarose conjugated with 5 μg of antibody were used to precipitate CBP, PCAF, GR or p65 overnight at 4° C. with rotation.
Immune complexes with resin were resuspended in 150 μl of HAT buffer (50 mM Tris-HCl, pH 8.0, 10% glycerol, 1 mM dithiothreitol, 0.1 mM EDTA, complete protease inhibitor cocktail). Typically, 20 μl of free core histone solution extracted from A549 cells (final amount 10 μg) and 30 μl of immunoprecipitate were incubated. Reactions were initiated by the addition of 0.25 mCi of [^3H] acetyl-CoA (5 Ci/mmol)(Amersham) and performed for 45 min at 30° C.

[5] = test system: GM-CSF release, A549 cells; test: GM-CSF release from A549 cells (ELISA)
Procedure: GM-CSF ELISA: Determination of GM-CSF expression was measured by sandwich ELISA (Pharmingen, Lugano, Switzerland) according to the manufacturer's instructions.

[6] = test system: histone H4 lysines K5, K8, K12, K16; test: Immunocytochemical staining for acetylated histone H4 lysine residues; type: cell-based; conditions: 6 hr
Procedure: Immunocytochemical staining for specific histone H4 acetylated lysine residues. […] Results are representative of 4 independent experiments.
Cells were washed with Hanks solution, and air-dried for 30 min at RT. Cells were then fixed in ice-cold acetone-methanol (50/50, w/w) (−20° C.) for 10 min. Slides were air dried and incubated with blocking buffer (20% normal swine serum in PBS, 0.1% saponin)(Dako) for 20 mmn followed by 1 hr incubation with primary antibody solution (PBS, 0.1% saponin, 1% BSA). Antibodies against pan-acetylated H4, H4-K5, H4-K8, H4-K12 and H4-K16 (Serotec) were used at 1:100 to 1:300 dilution. Slides were washed twice and incubated with biotinylated swine anti-rabbit IgG (Dako)(1:200) for 45 min. Slides were washed again before incubation with fluorescein isothiocyante-conjugated streptavidine (1:100) for 45 min. The slides were washed twice more before counterstaining with 20% haematoxyline, and mounting. Stained cells were observed by confocal microscopy. Confocal scanning laser microscopy images were collected with a Leica confocal microscope, equipped with a 488/514 nm dual band argon ion laser. An oil-immersion objective was used and images were collected using TCSNT software.

[7] = test system: histone acetylation, A549 cells; test: Histone acetylation, [3H]-acetate incorporation in whole A549 cells; type: cell-based
From the text: Histones were isolated and separated by SDS-PAGE and [^3H]-acetate incorporated histones were counted and normalised to protein level. […] Data represents mean±SEM of 3 independent experiments. **p<0.01.

[8] = test system: histone deacetylase (HDAC) activity, A549 cells; test: Histone deacetylation activity in total cellular extracts of treated A549 cells
Procedure: (B) Effect of Trichostatin A (TSA) on histone deacetylase activity and histone H4 acetylation. Cells were treated with increasing concentrations of TSA for 6 hrs before total cellular proteins were isolated and analysed for deacetylase activity and also histone acetylation by Western blotting using an anti-pan acetylated histone H4 antibody.
Effect of theophylline on histone deacetylase (HDAC) activity in A549 cells. (a) Cells were stimulated with LPS (3 ng/ml) for 24 hours in the presence or absence of theophylline (10^−5 M) or Dex (10^−6 M). Total cellular proteins were extracted and histone deacetylase activity measured. (b) Direct effect of theophylline on HDAC activity. […] Results are expressed as mean±SEM (n=3-5, *p<0.05, **p<0.01).

[9] = test system: CBP-associated HAT activity; test: CBP-immunoprecipitated histone acetylation (IP-HAT assay); type: cell-based
Procedure: […]. Cells were treated as in (A) and CBP immunoprecipitated under stringent conditions (see methods). Histone acetylation was measured as in (A) and results presented as mean±sem of at least 3 independent experiments, *p<0.05.
[…]. Cells were treated as in (A) and CBP immunoprecipitated under mild conditions (see methods). Histone acetylation was measured as in (A). […] Results presented as mean±sem of at least 3 independent experiments, *p<0.05.
Extracts were prepared using 100 μl of stringent immunoprecipitation (IP) buffer (50 mM Tris-HCl, pH 8.0, 150 mM NaCl, 1.0% triton X-100, 0.5% NP-40, 0.1% SDS, 0.5% deoxycholate, complete protease inhibitor cocktail (Boehringer-Mannheim)) or mild IP buffer (10 mM Tris-HCl, pH 8.0, 150 mM NaCl, 0.5% NP-40, complete protease inhibitor cocktail (Boehringer-Mannheim)). The lysis mixture was incubated on ice for 15 min and microfuged for 10 min at 4° C. Extracts were precleared with 20 μl of A/G agarose (a 50:50 mix; Santa Cruz, Santa Cruz, Calif.) and 2 μg of normal IgG. After microcentrifugation, 20 μl of A/G agarose conjugated with 5 μg of antibody were used to precipitate CBP, PCAF, GR or p65 overnight at 4° C. with rotation. […]
IP-HAT assays were performed using a modified method of Ogryzko (Ogryzko, V. V et al (1996) Cell 87:953-959). […] The dried filters were counted in a liquid scintillation counter.

CBP, PCAF = test: CBP and PCAF expression in A549 cells (Western blot); type: cell-based; conditions: 10^−8 and 10^−6M, 6 hrs
From the text: Proteins were extracted and size fractionated by SDS-PAGE and CBP and PCAF detected by Western blotting. Results are representative of 3 independent experiments. […] Immunoreactive bands were detected by ECL.

Molecule: COc1ccc(C2CNC(=O)C2)cc1OC1CCCC1 (centres unmarked) [rolipram]
- direct effect on HDAC activity (HDAC activity): no direct effect
- direct effect on HAT activity (HAT activity): no direct effect
- HAT activity [1]: no effect
- HDAC activity [2]: no effect

Molecule: IL-1β: interleukin used to stimulate A549 cells (1 ng/ml)
- SLPI production ([3]; IL-1β 1 ng/ml, versus 1.2±0.3 control): 6.0 ± 0.5 ng/mL
- increase of p65-immunoprecipitated histone acetylation ([4]; IL-1β stimulation): 9-10 fold
- IL-1β-stimulated GM-CSF release ([5]; A549 cells): 714 ± 94 pg/mL
- increase in GM-CSF release ([5]; IL-1β 1 ng/ml): 30 fold
- GM-CSF within the culture supernatant ([5]; IL-1β 1 ng/ml, 6 hr, untreated cells 30±10): 157 ± 6 ng/mL
- acetylated histone H4 K8 [6]: 42±15 % positive nuclei
- acetylated histone H4 K12 [6]: 37±4 % positive nuclei
- histone acetylation, IL-1β alone ([7]; IL-1β 1 ng/ml, whole cell incorporation): 137±15 dpm/μg protein and 71±9 dpm/μg protein
- histone acetylation 30 min after IL-1β-stimulation ([7]; versus 18±4): 41±6 dpm/μg protein
- increase in histone acetylation ([7]; whole cell): 4-5 fold and 4 fold

Molecule: lipopolysaccharide [LPS]
- reduction of total cell HDAC activity ([8]; LPS, 6 hrs): 30%

Molecule: OO [H2O2]
- GM-CSF release, IL-1β plus H2O2 ([5]; A549 cells): 2054 ± 342 pg/mL

Molecule: CC(C)Cn1c(=O)n(C)c(=O)c2[nH]cnc21 [IBMX]
- direct effect on HDAC activity (HDAC activity): no direct effect
- direct effect on HAT activity (HAT activity): no direct effect

- EC50 ([3]; Homo sapiens, A549, read-out: EC50, induction of SLPI): 9 nM
- IC50, p65-associated IL-1β-induced histone acetylation [4]: 0.4 nM
- IC50, p65-associated histone acetylation in the presence of TSA ([4]; TSA 100 ng/ml): 90 nM
- IC50 ([9]; CBP immunoprecipitated under stringent IP conditions, read-out: IC50, IL-1β-stimulated CBP-dependent histone acetylation): 8 nM
- IC50, IL-1β-induced CBP-associated histone acetylation ([9]; CBP isolated under mild IP conditions): 0.04 nM
Molecule: C[C@@H]1C[C@H]2[C@@H]3CCC4=CC(=O)C=C[C@]4(C)[C@@]3(F)[C@@H](O)C[C@]2(C)[C@@]1(O)C(=O)CO [dexamethasone]
- concentration of maximum SLPI induction ([3]; dexamethasone alone): 1 µM
- total cell HDAC activity after IL-1β plus H2O2 ([8]; 4 hrs, theophylline pre-treatment 10^−5 M, 10 min): no effect
- acetylated histone H4 K5 [6]: 53±9 % positive nuclei
- acetylated histone H4 K16 [6]: 36±16 % positive nuclei
- CBP or PCAF expression (CBP, PCAF): no effect
- concentration giving maximum induction of histone acetylation ([7]; between 4-8 hr): ≥ 10^−8 M
- basal histone acetylation ([7]; dexamethasone 10^−10 M alone, no effect): 23.7±4.1 dpm/μg protein
- IL-1β plus dexamethasone-stimulated histone acetylation ([7]; dexamethasone 10^−10 M, no TSA): 37±5 dpm/μg protein
- dexamethasone-induced histone acetylation ([7]; without TSA): 71±9 dpm/μg protein

- IC50, decrease in HDAC activity ([8]; A549 cells, 6 hrs): 1.1 ng/mL (≈ 3.64 nM)
Molecule: CC(/C=C/C(=O)NO)=C\[C@@H](C)C(=O)c1ccc(N(C)C)cc1 [TSA, trichostatin A]
- SLPI production ([3]; IL-1β 1 ng/ml after pretreatment with TSA 1 ng/ml, versus 6.0±0.5): 8.2 ± 0.3 ng/mL
- IL-1β-induced GM-CSF release ([5]; IL-1β 1 ng/ml plus TSA 1 ng/ml, versus 157±6 without TSA): 233 ± 12 ng/mL
- effect of TSA on dexamethasone (10^−6 M) suppression of GM-CSF release ([5]; IL-1β plus H2O2): unable to block
- effect of TSA on suppression of GM-CSF release by combined treatment ([5]; IL-1β plus H2O2): blocked
- effect of TSA pre-treatment on repression of GM-CSF release by combined treatment ([5]; IL-1β-stimulated): blocked
- GM-CSF release in the presence of TSA ([5]; IL-1β-stimulated, with or without dexamethasone 10^−6 M): 969 ± 84 pg/mL
- HDAC activity in A549 cells ([8]; TSA, increasing concentrations, 6 hrs, decrease from 112±21): 11±3 dpm/ng protein
- basal histone acetylation with TSA ([7]; TSA 1 ng/ml): 162±21 dpm/μg protein
- dexamethasone-induced histone acetylation with TSA ([7]; TSA 1 ng/ml, versus 71±9): 984±50 dpm/μg protein
- IL-1β-stimulated histone acetylation with TSA ([7]; TSA 1 ng/ml, versus 137±15): 1543±143 dpm/μg protein
- IL-1β plus dexamethasone (10^−10 M)-stimulated histone acetylation with TSA ([7]; TSA 100 ng/ml, versus 37±5): 435±28 dpm/μg protein
- IL-1β-stimulated histone acetylation with TSA ([7]; TSA 100 ng/ml, versus 71±9): 1543±143 dpm/μg protein

Molecule: C[S+]([O-])c1ccc(-c2nc(-c3ccncc3)c(-c3ccc(F)cc3)[nH]2)cc1 (centres unmarked) [SB203580]
- effect on theophylline-induced increased HDAC activity (HDAC activity): significantly inhibited

Molecule: COc1cccc(-c2cc(=O)c3ccccc3o2)c1N [PD089059]
- effect on theophylline-induced increased HDAC activity (HDAC activity): failed to have any effect
